Entries after “also recorded” stand apart in the source; their conditions may differ.
Test system: high-fat-fed C57BL/6 mice
Test: High-fat-diet-fed C57BL/6 mice treated with Compound 1 and/or antagomiR-122
Type: in vivo
Experimental: C57BL/6 mice were fed a 50% high fat diet (HFD) for four weeks. The control cohort received three hydrodynamic tail vein injections of a 5 μg antagomiR-control and six i.p injections of saline over three weeks. A second cohort was hydrodynamic tail vein injected with 5 μg antagomiR-122 (the reverse complement that inhibits activity of miR-122) three times and i.p injections of saline six times over three weeks. A third cohort was injected i.p. with Compound 1 (7.5 mg/kg) twice a week plus antagomiR-control once a week over the course of 3 weeks. The final cohort was injected i.p. with Compound 1 (7.5 mg/kg) twice a week plus antagomiR-122 injections once a week over the course of 3 weeks.
Male C57BL/6J mice, 7 to 8 weeks old, were housed randomly in standard cages and were fed a HFD, or atherogenic diet (consisting 1% Chol and 0.5% cholic acid, see also Table 6). All mice had free access to water during the experimental period. During the feeding period body weight was monitored every 3 days. In the HFD experiment, after 4 or 6 weeks, the resultant obese mice were treated with antagomiR-122 (5 μg/mouse once a week for 3 weeks), or i.p. injected with Compound 1 (RORα agonist, 7.5 mg/kg twice a week for 3 weeks; or 15 mg/kg 3 times a week for 3 weeks). The obese control (HFD) group was administered only saline with DMSO and antagomiR-control. After 3 weeks of treatment mice were sacrificed and livers were taken for RNA-seq analysis. Livers, white adipose, and skeletal muscle tissues were frozen in liquid nitrogen or in optimum cutting temperature embedded frozen blocks, for further RNA and histologic analysis. In the atherogenic diet experiment mice were treated with 15 mg/kg Compound 1 after 3 weeks with the diet. After 3.5 weeks of treatment, mice were sacrificed, and the livers were frozen in liquid nitrogen or in optimum cutting temperature embedded frozen blocks. Plasma was collected from atherogenic diet-fed mice and saved in −20° C. for ALT and AST analysis using the Reflotron® Analyzer and test-strips (Roche).
In the HFD experiment, after 4 or 6 weeks, the resultant obese mice were treated with antagoMIR122 (5 μg/mouse once a week for 3 weeks), or i.p. injected with Compound 1 (RORα agonist, 7.5 mg/kg twice a week for 3 weeks; or 15 mg/kg 3 times a week for 3 weeks). The obese control (HFD) group was administered only saline with DMSO and antagomiR-control.
Mice were fed with a 50% HFD and after 4 weeks, when fatty liver was already established, they were treated with Compound 1, antagoMIR122 or both compounds together for an additional 3 weeks. […] The weighing of mice began at week 3, one week before treatments were initiated. […] The liver weight of the mice was in accordance with their body weight.

Compound: O=C1Nc2cc(C(=O)N3CCC(Cc4ccccc4)CC3)ccc2Nc2ccccc21 [Compound 1]
- Hepatic lipid droplets and TG content (50% HFD, 7.5 mg/kg twice a week, 3 weeks): reduced
- Body weight, Compound 1 co-administered with antagomiR-122 (50% HFD, 3 weeks): returned exactly to that of control animals
- Dgat1 (MIR122 target gene) in the liver (50% HFD, 3 weeks of treatment): reduced
- Energy expenditure (β-hydroxybutyrate plasma level as surrogate marker) (50% HFD, 3 weeks of treatment): increases energy expenditure; also recorded: increase
- FGF21 (RORα target gene) in the liver (50% HFD, 3 weeks of treatment): increased
- MIR122 levels in plasma and muscle (secretion) (50% HFD, 3 weeks of treatment): enhanced; also recorded: increase of MIR122
- Mature MIR122 level in the liver (50% HFD, 3 weeks of treatment): no increase
- Muscle TG levels (50% HFD, 3 weeks of treatment): reduced
- pri- and pre-MIR122 in the liver (50% HFD, 3 weeks of treatment): increased significantly
- Body weight (50% HFD, Compound 1 7.5 mg/kg i.p. twice a week, antagomiR once a week, 3 weeks, 7.5 mg/kg): weight steadily decreased; also recorded: reduces body weight; also recorded: significant decrease in body weight
- Hepatic RORα level (HFD-fed mice): increased the RORα level to its level in mice fed normal diet

From patent publication US20250339445A1, “Modulators of Orphan Nuclear Receptors for Treating Pancreatitis, Glioblastoma, Sarcopenia and Stroke” (Emory University, priority 2020, published 2025)
